Eight compounds from PMC12517401, “Design, synthesis, and antiproliferative activity of new 2-amino-pyrano[3,2-c]quinoline-3-carbonitriles as potential EGFR, BRAF^V600E, and HER-2 inhibitors” (RSC Advances, 2025) can be followed below.

One data set has as its system breast cancer (MCF-7). Description: Antiproliferative assay, MCF-7. The format is cell-based, human. The note with it: Homo sapiens, MCF7; MCF-7 breast cancer cell line; read-out: Antiproliferative activity IC50 ± SEM (nM) MCF-7. On the procedure:
(§1) 4.2.2. Assay for antiproliferative effect
(§2) To explore the antiproliferative potential of compounds propidium iodide fluorescence assay was performed using different cell lines such as Panc-1 (pancreas cancer cell line), MCF-7 (breast cancer cell line), HT-29 (colon cancer cell line) and A-549 (epithelial cancer cell line), respectively. To calculate the total nuclear DNA, a fluorescent dye (propidium iodide, PI) is used which can attach to the DNA, thus offering a quick and precise technique. PI cannot pass through the cell membrane and its signal intensity can be considered as directly proportional to quantity of cellular DNA. Cells whose cell membranes are damaged or have changed permeability are counted as dead ones. The assay was performed by seeding the cells of different cell lines at a density of 3000-7500 cells/well (in 200μl medium) in culture plates followed by incubation for 24h at 37 °C in humidified 5%CO2/95% air atmospheric conditions. The medium was removed; the compounds were added to the plates at 10 μM concentrations (in 0.1% DMSO) in triplicates, followed by incubation for 48h. DMSO (0.1%) was used as control. After incubation, medium was removed followed by the addition of PI (25 μl, 50μg/mL in water/medium) to each well of the plates. At -80 °C, the plates were allowed to freeze for 24 h, followed by thawing at 25 °C. A fluorometer (Polar-Star BMG Tech) was used to record the readings at excitation and emission wavelengths of 530 and 620 nm for each well. The percentage cytotoxicity of compounds was calculated using the following formula:
(§3) Where ATC= Absorbance of treated cells and AC= Absorbance of control. Erlotinib was used as positive control in the assay. […]

The subject of data set [1] is pancreatic cancer (Panc-1). Description: Antiproliferative assay, Panc-1. It counts as cell-based. The conditions noted are these: Homo sapiens; Panc-1 pancreatic cancer cell line; read-out: Antiproliferative activity IC50 ± SEM (nM) Panc-1. On the procedure: as §1, §2, §3
A further data set has as its system lung cancer (A-549). The experiment in a line: Antiproliferative assay, A-549. The format is cell-based. The note with it: Homo sapiens, A549; A-549 lung cancer cell line; read-out: Antiproliferative activity IC50 ± SEM (nM) A-549. On the procedure:
as §1, §2, §3
(1 picture or pasted object on this page, not shown here)

Data set [2] is described as follows: Cell viability assay (MTT) on MCF-10A normal cell line. It counts as cell-based. The conditions noted are these: human, MCF-10A mammary gland epithelial normal cells, MCF-10A cells, 50 μM of each compound, four days of incubation. On the procedure: The human mammary gland epithelial (MCF-10A) normal cell line was used to examine the viability effects of new derivatives 5a–l using the MTT test.[33,34] Refer to Appendix A for more details.
The human mammary gland epithelium (MCF-10A) normal cell line was employed to evaluate the viability effects of novel derivatives 5a–l. The cell viability of 5a–l was assessed via the MTT assay following four days of incubation with 50 μM of each compound on MCF-10A cells.[33,34] […]
4.2. Biological evaluation
4.2.1 Cell Viability assay (MTT assay)
MTT assay was performed to investigate the effect of the synthesized compounds on mammary epithelial cells (MCF-10A). The cells were propagated in medium consisting of Ham's F-12 medium/ Dulbecco's modified Eagle's medium (DMEM) (1:1) supplemented with 10% foetal calf serum, 2 mM glutamine, insulin (10 μg/mL), hydrocortisone (500 ng/mL) and epidermal growth factor (20 ng/mL). Trypsin ethylenediamine tetra acetic acid (EDTA) was used to passage the cells after every 2-3 days. 96-well flat-bottomed cell culture plates were used to seed the cells at a density of 10^4 cells mL-1. The medium was aspirated from all the wells of culture plates after 24 h followed by the addition of synthesized compounds (in 200 μL medium to yield a final concentration of 0.1% (v/v) dimethyl sulfoxide) into individual wells of the plates. Four wells were designated to a single compound. The plates were allowed to incubate at 37°C for 96 h. Afterwards, the medium was aspirated and 3-[4,5-dimethylthiazol-2-yl]-2,5-diphenyltetrazolium bromide (MTT) (0.4 mg/mL) in medium was added to each well and subsequently incubated for 3 h. The medium was aspirated and 150 μL dimethyl sulfoxide (DMSO) was added to each well. The plates were vortexed followed by the measurement of absorbance at 540 nm on a microplate reader. The results were presented as inhibition (%) of proliferation in contrast to controls comprising 0.1% DMSO. […]

A further data set relates to colon cancer (HT-29). Description: Antiproliferative assay, HT-29. The format is cell-based. The note with it: Homo sapiens; HT-29 colon cancer cell line; read-out: Antiproliferative activity IC50 ± SEM (nM) HT-29. On the procedure:
as §1, §2, §3

Data set [3] concerns four human cancer cell lines (A-549, MCF-7, Panc-1, HT-29). Description: Antiproliferative assay, average over four cancer cell lines (GI50). The format is cell-based. The conditions noted are these: for GI50: Homo sapiens, GI50 = mean IC50 against the four cancer cell lines; for Potency reduction fold compared to 5h (GI50): ratio of GI50 versus 5h; for Times less efficient than 5a (GI50): ratio of GI50 versus 5a. On the procedure: as §1
To explore the antiproliferative potential of compounds propidium iodide fluorescence assay was performed using different cell lines such as Panc-1 (pancreas cancer cell line), MCF-7 (breast cancer […]
calculate the total nuclear DNA, a fluorescent dye (propidium iodide, PI) is used which can attach to the DNA, thus offering a quick and precise technique. PI cannot pass through the cell membrane and its signal intensity can be considered as directly proportional to quantity of cellular DNA. Cells whose cell membranes are damaged or have changed permeability are counted as dead ones. The assay was performed by seeding the cells of different cell lines at a density of 3000-7500 cells/well (in 200μl […]
atmospheric conditions. The medium was removed; the compounds were added to the plates at 10 μM concentrations (in 0.1% DMSO) in triplicates, followed by incubation for 48h. DMSO (0.1%) was used as control. After incubation, medium was removed followed by the addition of PI (25 μl, 50μg/mL in water/medium) to each well of the plates. At -80 °C, the plates were allowed to freeze for 24 h, followed by thawing at 25 °C. A fluorometer (Polar-Star BMG Tech) was used to record the readings at excitation and emission wavelengths of 530 and 620 nm for each well. The percentage cytotoxicity of compounds was calculated using the following formula:
Where ATC= Absorbance of treated cells and AC= Absorbance of control. […]
positive control in the assay. […]

Another data set addresses EGFR (Homo sapiens, UniProt P00533). The experiment in a line: EGFR-TK inhibitory assay.
The target of a further data set is T1, HER-2 (Homo sapiens, UniProt P04626).
T1 construct: purchased Abcam ab60866
The experiment in a line: HER-2 inhibitory assay (ADP-Glo kinase assay). The format is biochemical. The conditions noted are these: read-out: HER-2 inhibition IC50 ± SEM. On the procedure:
The results are presented as IC50 values. Lapatinib served as the reference medication. Appendix A describes more experimental details.
Lapatinib functioned as the reference drug. […]
4.2.5. HER-2 inhibitory assay
The ADP-Glo™ Kinase Assay was used for kinase activity detection, related kinases information:
HER-2 (ab60866, Abcam), with a concentration of 100 ng/mL. Target compounds were dissolved in DMSO to obtain drug solutions with different concentrations, and the compound concentrations in the final reaction system (100 μL) were 1 nM, 20 nM, 40 nM, 80 nM, and 100 nM, respectively. 10μL of the solution containing compounds was transferred to a 96-well plate, then added 40 μL of 1 × kinase buffer (50 mM HEPES, pH 7.5) to each well, and mixed the mixture in the 96-well plate on a shaker for 10 min. Next, added 25 μL of ADP-Glo™ reagent to the above wells, mixed and incubated for another 40 min. Distributed 10 μL kinase detection reagent to the reaction and incubated for 30 min. Finally, the full-wavelength microplate reader was used to record the OD value.
4.3. Statistical analysis
Computerized Prism 5 program was used to statistically analyzed data using one-way ANOVA test followed by Tukey’s as post ANOVA for multiple comparison at P ≤.05. Data were presented as […]

The next data set addresses BRAF^V600E (Mus musculus, UniProt P28028, V585E). The experiment in a line: BRAF^V600E inhibitory assay.

Sequence of EGFR (P00533 669-1210): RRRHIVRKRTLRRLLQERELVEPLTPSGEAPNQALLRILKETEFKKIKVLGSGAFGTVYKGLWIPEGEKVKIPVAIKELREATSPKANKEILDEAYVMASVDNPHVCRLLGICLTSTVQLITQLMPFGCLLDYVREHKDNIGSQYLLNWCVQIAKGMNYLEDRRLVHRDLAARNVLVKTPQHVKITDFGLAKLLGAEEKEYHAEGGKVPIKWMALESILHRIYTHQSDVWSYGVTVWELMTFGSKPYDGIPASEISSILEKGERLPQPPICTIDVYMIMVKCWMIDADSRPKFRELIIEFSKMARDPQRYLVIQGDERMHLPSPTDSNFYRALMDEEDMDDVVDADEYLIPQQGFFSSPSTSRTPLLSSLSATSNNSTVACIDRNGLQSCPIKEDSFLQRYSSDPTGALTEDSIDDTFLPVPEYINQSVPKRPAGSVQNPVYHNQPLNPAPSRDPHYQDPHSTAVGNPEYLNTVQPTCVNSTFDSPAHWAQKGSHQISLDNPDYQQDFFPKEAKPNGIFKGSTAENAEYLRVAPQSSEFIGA
T1 sequence (P04626 23-1255): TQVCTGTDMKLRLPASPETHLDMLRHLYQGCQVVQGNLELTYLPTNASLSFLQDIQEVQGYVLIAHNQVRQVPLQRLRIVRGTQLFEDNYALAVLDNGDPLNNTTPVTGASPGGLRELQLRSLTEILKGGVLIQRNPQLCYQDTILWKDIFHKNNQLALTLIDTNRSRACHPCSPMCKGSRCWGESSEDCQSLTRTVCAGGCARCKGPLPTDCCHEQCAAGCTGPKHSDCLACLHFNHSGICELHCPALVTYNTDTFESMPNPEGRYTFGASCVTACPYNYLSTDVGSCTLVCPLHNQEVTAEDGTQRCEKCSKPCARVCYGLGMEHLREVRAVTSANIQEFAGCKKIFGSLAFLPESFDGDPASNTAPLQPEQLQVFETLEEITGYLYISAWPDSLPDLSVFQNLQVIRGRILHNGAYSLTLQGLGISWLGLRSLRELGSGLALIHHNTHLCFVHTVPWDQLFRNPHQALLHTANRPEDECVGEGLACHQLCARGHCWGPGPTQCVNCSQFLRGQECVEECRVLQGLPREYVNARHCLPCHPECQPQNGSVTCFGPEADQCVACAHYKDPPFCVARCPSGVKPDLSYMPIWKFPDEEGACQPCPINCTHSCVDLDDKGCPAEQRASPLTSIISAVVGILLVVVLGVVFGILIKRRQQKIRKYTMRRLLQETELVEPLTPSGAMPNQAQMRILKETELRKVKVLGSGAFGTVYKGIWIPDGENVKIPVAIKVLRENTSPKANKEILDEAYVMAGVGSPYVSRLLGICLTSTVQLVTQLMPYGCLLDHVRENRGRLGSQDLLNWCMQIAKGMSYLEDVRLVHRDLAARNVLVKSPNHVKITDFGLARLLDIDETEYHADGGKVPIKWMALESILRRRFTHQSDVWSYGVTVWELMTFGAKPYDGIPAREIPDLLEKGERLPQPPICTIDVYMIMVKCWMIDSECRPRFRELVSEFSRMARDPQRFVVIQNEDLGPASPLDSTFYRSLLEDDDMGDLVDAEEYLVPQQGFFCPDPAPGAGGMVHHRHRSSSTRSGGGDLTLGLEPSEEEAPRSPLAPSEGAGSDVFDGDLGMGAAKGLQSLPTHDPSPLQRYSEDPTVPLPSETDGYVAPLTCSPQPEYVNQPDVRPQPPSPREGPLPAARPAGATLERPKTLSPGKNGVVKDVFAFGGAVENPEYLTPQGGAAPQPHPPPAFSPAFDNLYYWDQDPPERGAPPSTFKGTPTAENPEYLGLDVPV
Sequence of BRAF^V600E (P28028 whole entry V585E): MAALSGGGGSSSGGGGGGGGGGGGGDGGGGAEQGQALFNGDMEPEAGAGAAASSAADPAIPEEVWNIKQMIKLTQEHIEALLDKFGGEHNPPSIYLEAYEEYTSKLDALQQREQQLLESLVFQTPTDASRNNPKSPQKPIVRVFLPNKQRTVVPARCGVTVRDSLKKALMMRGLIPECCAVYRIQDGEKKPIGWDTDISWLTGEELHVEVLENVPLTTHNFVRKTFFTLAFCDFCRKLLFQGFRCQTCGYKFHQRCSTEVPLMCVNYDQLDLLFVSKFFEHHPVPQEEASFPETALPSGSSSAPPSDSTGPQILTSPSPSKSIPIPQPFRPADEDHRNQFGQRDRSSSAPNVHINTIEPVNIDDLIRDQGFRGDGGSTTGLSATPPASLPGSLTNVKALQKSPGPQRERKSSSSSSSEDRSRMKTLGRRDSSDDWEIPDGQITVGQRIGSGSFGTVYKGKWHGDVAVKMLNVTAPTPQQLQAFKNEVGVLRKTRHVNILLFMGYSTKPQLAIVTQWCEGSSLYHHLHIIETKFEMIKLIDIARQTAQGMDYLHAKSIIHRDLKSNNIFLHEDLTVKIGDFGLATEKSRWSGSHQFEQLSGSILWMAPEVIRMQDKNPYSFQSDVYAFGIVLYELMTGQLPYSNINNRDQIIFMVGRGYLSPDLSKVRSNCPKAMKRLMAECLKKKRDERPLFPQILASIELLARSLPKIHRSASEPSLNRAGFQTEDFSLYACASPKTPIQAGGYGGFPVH
Method for EGFR: Baculoviral expression vectors including pBlueBacHis2B and pFASTBacHTc were used separately
upstream to the EGFR sequence comprised a sequence that encoded (His)6. Sf-9 cells were infected for 72h for protein expression. The pellets of Sf-9 cells were solubilized in a buffer containing sodium vanadate (100 μM), aprotinin (10 μg/mL), triton (1%), HEPES buffer(50mM), ammonium molybdate (10 μM), benzamidine HCl (16 μg/mL), NaCl (10 mM),leupeptin (10 μg/mL) and pepstatin (10 μg/mL) at 0°C for 20 min at pH 7.4, followed by centrifugation for 20 min. To eliminate the nonspecifically bound material, a Ni-NTA super flow packed column was used to pass through and wash the crude extract supernatant first with 10mM and then with 100 mM imidazole. Histidine-linked proteins were first eluted with 250 and then with 500 mM imidazole subsequent to dialysis against NaCl (50 mM), HEPES (20 mM), glycerol (10%) and 1 μg/mL each of aprotinin, leupeptin and pepstatin for 120 min. The purification was performed either at 4 °C or on ice. To record autophosphorylation level, EGFR kinase assay was carried out on the basis of DELFIA/Time-Resolved Fluorometry. The compounds were first dissolved in DMSO absolute, subsequent to dilution to appropriate concentration using HEPES (25 mM) at pH 7.4. Each compound (10 μL) was incubated with recombinant enzyme (10 μL, 5 ng for EGFR, 1:80 dilution in 100 mM HEPES) for 10 min at 25 °C, subsequent to the addition of 5X buffer (10 μL, containing 2 mM MnCl2, 100 μM Na3VO4, 20 mM HEPES and 1 mM DTT) and ATP-MgCl2 (20 μL, containing 0.1 mM ATP and 50 mM MgCl2) and incubation for 1h. The negative and positive controls were included in each plate by the incubation of enzyme either with or without ATP-MgCl2. The liquid was removed after incubation and the plates were washed thrice using a wash buffer. The Europium-tagged antiphosphotyrosine antibody (75 μL, 400 ng) was added to each well followed by incubation of 1h
and then washing of the plates using buffer. The enhancement solution was added to each well and
autophosphorylation percentage inhibition by compounds was calculated using the following
calculated. The majority of signals detected by antiphosphotyrosine antibody were from EGFR because the enzyme preparation contained low impurities.

On to `COc1ccc(C2C(C#N)=C(N)Oc3c2c(=O)[nH]c2ccccc32)cc1` (stereo not drawn) [Compound 5f, 2-Amino-4-(4-methoxylphenyl)-5-oxo-5,6-dihydro-4H-pyrano[3,2-c]quinoline-3-carbonitrile], for which the IC50 with breast cancer (MCF-7) amounted to 50 ± 4 nM; in data set [1], 56 ± 5 nM; with lung cancer (A-549), 54 ± 4 nM; with colon cancer (HT-29), 56 ± 5 nM. Besides, in data set [2], the viability at 4 days, 50 µM was found to be 92%. Moreover, the GI50 in data set [3] worked out at 0.054 µM.
Take `N#CC1=C(N)Oc2c(c(=O)[nH]c3ccccc23)C1c1ccccc1` (stereo not drawn) [Compound 5a, 2-Amino-5-oxo-4-phenyl-5,6-dihydro-4H-pyrano[3,2-c]quinoline-3-carbonitrile]: the half-maximal inhibitory concentration (IC50) on EGFR is 0.084 ± 0.005 µM; at HER-2, 0.036 ± 0.002 µM; in the data set on breast cancer (MCF-7), 27 ± 2 nM; in data set [1], 32 ± 2 nM; in the data set on lung cancer (A-549), 32 ± 2 nM; at BRAF^V600E it was 0.079 ± 0.005 µM. Also, the half-inhibitory concentration (IC50) in the data set on colon cancer (HT-29) amounted to 32 ± 2 nM. Also, at EGFR (ratio of EGFR IC50 versus 5e), the “Fold less potent than 5e, EGFR” value is listed as 1.2 fold. Also, in data set [2], the viability at 4 days, 50 µM came to 92%. Halving of growth in data set [3] (GI50) required 0.031 µM.
For `COc1ccc2[nH]c(=O)c3c(c2c1)OC(N)=C(C#N)C3c1ccc(Cl)cc1` (stereo not drawn) [Compound 5l, 2-Amino-9-methoxyl-4-(4-chlorophenyl)-5-oxo-5,6-dihydro-4H-pyrano[3,2-c]quinoline-3-carbonitrile], the IC50 turned out to be 56 ± 5 nM in the data set on breast cancer (MCF-7), 62 ± 5 nM in data set [1], 60 ± 5 nM in the data set on lung cancer (A-549) and 63 ± 5 nM in the data set on colon cancer (HT-29). The viability at 4 days, 50 µM in data set [2] worked out at 92%. Moreover, in data set [3], growth was halved (GI50) at 0.061 µM. The “Potency reduction fold compared to 5h (GI50)” value (“Potency reduction fold” below) in data set [3] amounted to 2.3 fold.
On to `Cc1ccc2[nH]c(=O)c3c(c2c1)OC(N)=C(C#N)C3c1ccccc1` (stereo not drawn) [Compound 5b, 2-Amino-9-methyl-5-oxo-4-phenyl-5,6-dihydro-4H-pyrano[3,2-c]quinoline-3-carbonitrile], for which the IC50 in the data set on breast cancer (MCF-7) was 44 ± 4 nM; in [1], 48 ± 4 nM; in the data set on lung cancer (A-549), 48 ± 4 nM; in the data set with colon cancer (HT-29), 50 ± 5 nM. This compound had a viability at 4 days, 50 µM in [2] of 90%. Besides, the GI50 in [3] came out at 0.048 µM. Besides, in data set [3], the “Times less efficient than 5a (GI50)” value was 1.5 fold.
Take `N#CC1=C(N)Oc2c(c(=O)[nH]c3ccccc23)C1c1ccc(Cl)cc1` (stereo not drawn) [Compound 5j, 2-Amino-4-(4-chlorophenyl)-5-oxo-5,6-dihydro-4H-pyrano[3,2-c]quinoline-3-carbonitrile]: the IC50 came out at 38 ± 3 nM with breast cancer (MCF-7), 44 ± 4 nM in data set [1], 43 ± 4 nM with lung cancer (A-549) and 46 ± 4 nM in the data set with colon cancer (HT-29). The compound further returned a viability at 4 days, 50 µM in data set [2] of 91%. The GI50 in [3] is 0.043 µM.
`Cc1ccc2[nH]c(=O)c3c(c2c1)OC(N)=C(C#N)C3c1ccc(Cl)cc1` (stereo not drawn) [Compound 5k, 2-Amino-9-methyl-4-(4-chlorophenyl)-5-oxo-5,6-dihydro-4H-pyrano[3,2-c]quinoline-3-carbonitrile]: the IC50 with breast cancer (MCF-7) was determined as 34 ± 3 nM; in data set [1] it was 42 ± 3 nM; in the data set on lung cancer (A-549) it was 39 ± 3 nM; in the data set with colon cancer (HT-29), 42 ± 3 nM. The compound also registered a viability at 4 days, 50 µM in [2] of 93%. Also, growth in data set [3] was halved (GI50) at 0.039 µM.
Regarding `COc1ccc(C2C(C#N)=C(N)Oc3c2c(=O)[nH]c2ccc(C)cc32)cc1` (stereo not drawn) [Compound 5g, 2-Amino-4-(4-methoxylphenyl)-9-methyl-5-oxo-5,6-dihydro-4H-pyrano[3,2-c]quinoline-3-carbonitrile], the half-maximal inhibitory concentration (IC50) in the data set on breast cancer (MCF-7) turned out to be 67 ± 6 nM; in [1], 74 ± 6 nM; in the data set on lung cancer (A-549), 71 ± 6 nM; in the data set with colon cancer (HT-29) it was 74 ± 6 nM. Moreover, the viability at 4 days, 50 µM in [2] is 93%. The compound further had a GI50 in data set [3] of 0.072 µM. The “Potency reduction fold” value in data set [3] worked out at 2.6 fold.
For `COc1ccc2[nH]c(=O)c3c(c2c1)OC(N)=C(C#N)C3c1ccccc1` (stereo not drawn) [Compound 5c, 2-Amino-9-methoxy-5-oxo-4-phenyl-5,6-dihydro-4H-pyrano[3,2-c]quinoline-3-carbonitrile], the IC50 was 59 ± 5 nM in the data set on breast cancer (MCF-7), 68 ± 6 nM in data set [1], 66 ± 6 nM in the data set on lung cancer (A-549) and 70 ± 6 nM in the data set with colon cancer (HT-29). Moreover, in data set [2], the viability at 4 days, 50 µM turned out to be 91%. This compound displayed a GI50 in data set [3] of 0.066 µM. The “Times less efficient than 5a (GI50)” value in data set [3] was 2.1 fold. In data set [3], the “Potency reduction fold” value came out at 2.5 fold.
